Measured values from PubChem BioAssay AID1845199 (Molecular Pharmacology Branch, DTP, NCI, 2023).
pIC50: −log10 of the molar value.

Test system: 556581-035-R-J1 tumor spheroid viability, % test/control
Test: Anticancer human tumor 556581-035-R-J1 patient-derived ovarian carcinoma cell line growth inhibition
Settings: spheroids with HUVEC and MSC; for pIC50: curve of first compound; for viability, T/C: stronger effect = lower value
Source text: Multicellular complex tumor spheroid response to DNA repair inhibitors in combination with DNA-damaging drugs
This study explores the anticancer activities of DNA-damaging drugs and inhibitors of DNA damage repair, both as single agents and in combinations. Complex tumor spheroids comprised of malignant cells, endothelial cells and mesenchymal stem cells served as an in vitro model for human solid tumors. This model system incorporates physiologically relevant features and patient-derived or established malignant cell lines with clinically relevant genetic alterations from many tumor types. Twenty-six patient-derived or established malignant cell lines were evaluated representing sarcoma, melanoma, small cell lung cancer (SCLC), non-small cell lung cancer (NSCLC), as well as bladder, ovarian and pancreatic cancers. The concentration ranges selected for each drug and investigational agent were based upon clinically achievable concentrations if the clinical Cmax of the agent was known.
Compounds. The drugs and compounds olaparib (NSC753686), talazoparib (NSC767125), berzosertib (NSC777718), elimusertib (NSC800525), nedisertib (NSC802822), VX-984 (NSC792969), AZD-1390 (NSC803789), temozolomide (NSC362856), topotecan (NSC609699), trabectedin (NSC813783), staurosporine (NSC755774), and gemcitabine (NSC613327) were obtained from the National Cancer Institute (NCI) Developmental Therapeutics Program Chemical Repository. The FDA-approved anticancer drug set is available from the Developmental Therapeutics Program at https://dtp.cancer.gov/organization/dscb/obtaining/available_plates.htm. […] The stock solutions were prepared in dimethyl sulfoxide (DMSO, Sigma-Aldrich, St. Louis, MO, cat. D2650) at 400-fold the tested concentration and stored at -70 degrees C. Prior to their use, the stock solutions were diluted in fresh medium and the final DMSO concentration in the assay was 0.25% (v/v). All drugs and investigational agents were tested over a range starting from a high concentration at or near the clinical Cmax and decreasing in half-log increments. If the clinical Cmax for an agent had not been determined, the highest concentration tested was 10 microM.
Cell Lines. The patient-derived cancer cell (PDC) lines: 156681-154-R-J1-PDC, 283228-195-R-J1-PDC, 287954-098-R-J1-PDC, 292921-168-R-J2-PDC, 349418-098-R-PDC, 425362-245-T-J1-PDC, 556581-035-R-J1-PDC, and BL0293-F563-PDC were received from the NCI Patient-Derived Models Repository (PDMR, https://pdmr.cancer.gov). The established cell lines HS-SY-2 (RRID:CVCL_8719), MPNST, and SYO-1 (RRID:CVCL_7146) were obtained from the Sloan Kettering Institute. The alveolar soft parts sarcoma cell line ASPS-1 (RRID:CVCL_S738) was established at the NCI and grown from internal seed stocks. The following established cell lines were purchased from the American Type Culture Collection (ATCC, Manassas, VA): G-401 (ATCC, cat. CRL-1441, RRID:CVCL_0270), SW982 (ATCC, cat. HTB-93, RRID:CVCL_1734), VA-ES-BJ (ATCC, cat. CRL-2138, RRID:CVCL_1785), NCI-H719 (ATCC, cat. CRL-5837, RRID:CVCL_1582), NCI-H196 (ATCC, cat. CRL-5823, RRID:CVCL_1509), NCI-H841 (ATCC, cat. CRL-5845, RRID:CVCL_1595), NCI-H1618 (ATCC, cat. CRL-5879, RRID:CVCL_1480), NCI-H1876 (ATCC, cat. CRL-5902, RRID:CVCL_1503), DMS 114 (ATCC, cat. CRL-2066; RRID:CVCL_1174), NCI-H211 (ATCC, cat. CRL-5824; RRID:CVCL_1529), and SW 1271 (ATCC, cat. CRL-2177, RRID:CVCL_1716). The small cell lung cancer cell line COR-L88 was purchased from Sigma-Aldrich (cat. 92031917-1VL, RRID:CVCL_1141). The non-small cell lung cancer cell lines NCI-H226 (RRID:CVCL_1544) and NCI-H322M (RRID:CVCL_1557) were established at the NCI and grown from internal seed stocks. Pooled donor human umbilical vein endothelial cells (HUVEC, Lonza, cat. CC-2519) and human mesenchymal stem cells (hMSC, Lonza, cat. PT-2501) were purchased from Lonza (Walkersville, MD).
Cell Culture. All cells were maintained in an incubator at 37 degrees C and 5% CO2 with 95% humidity. […]

[1] = second compound 0.003 µM, first compound 0.0949 µM
[2] = second compound 0.003 µM, first compound 0.3 µM
[3] = second compound 0.003 µM, first compound 0.949 µM
[4] = second compound 0.003 µM, first compound 3 µM
[5] = second compound 0.00949 µM, first compound 0.0949 µM
[6] = second compound 0.00949 µM, first compound 0.3 µM
[7] = second compound 0.00949 µM, first compound 0.949 µM
[8] = second compound 0.00949 µM, first compound 3 µM
[9] = second compound 0.03 µM, first compound 0.0949 µM
[10] = second compound 0.03 µM, first compound 0.3 µM
[11] = second compound 0.03 µM, first compound 0.949 µM
[12] = second compound 0.03 µM, first compound 3 µM
[13] = second compound 0.0949 µM, first compound 0.0949 µM
[14] = second compound 0.0949 µM, first compound 0.3 µM
[15] = second compound 0.0949 µM, first compound 0.949 µM
[16] = second compound 0.0949 µM, first compound 3 µM
[17] = second compound 0.3 µM, first compound 0.0949 µM
[18] = second compound 0.3 µM, first compound 0.3 µM
[19] = second compound 0.3 µM, first compound 0.949 µM
[20] = second compound 0.3 µM, first compound 3 µM
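Also: spheroids exposed to compounds for 7 days before viability read.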

Structure (SMILES)	pIC50 (second compound 0.003 µM)	pIC50 (second compound 0.00949 µM)	pIC50 (second compound 0.03 µM)	pIC50 (second compound 0.0949 µM)	pIC50 (second compound 0.3 µM)	viability, T/C [1] [%]	viability, T/C [2] [%]	viability, T/C [3] [%]	viability, T/C [4] [%]	viability, T/C [5] [%]	viability, T/C [6] [%]	viability, T/C [7] [%]	viability, T/C [8] [%]	viability, T/C [9] [%]	viability, T/C [10] [%]	viability, T/C [11] [%]	viability, T/C [12] [%]	viability, T/C [13] [%]	viability, T/C [14] [%]	viability, T/C [15] [%]	further results
Cn1ncnc1[C@H]1c2n[nH]c(=O)c3cc(F)cc(c23)N[C@@H]1c1ccc(F)cc1 + CC[C@@]1(O)C(=O)OCc2c1cc1n(c2=O)Cc2cc3c(CN(C)C)c(O)ccc3nc2-1	< 5.52	< 5.52	5.89	7.17	> 8.02	93.2	94.3	71.1	57.1	82.2	71.4	68.5	49.4	63.2	64.9	52.9	39.8	45	44.2	36.2	viability, T/C (second compound 0.003 µM, first compound 0.00949 µM): 105%; viability, T/C (second compound 0.003 µM, first compound 0.03 µM): 97.7%; viability, T/C (second compound 0.00949 µM, first compound 0.00949 µM): 88.2%; viability, T/C (second compound 0.00949 µM, first compound 0.03 µM): 81.7%; viability, T/C (second compound 0.03 µM, first compound 0.00949 µM): 70%; viability, T/C (second compound 0.03 µM, first compound 0.03 µM): 67.2%; viability, T/C (second compound 0.0949 µM, first compound 0.00949 µM): 57.9%; viability, T/C (second compound 0.0949 µM, first compound 0.03 µM): 51.3%; viability, T/C [16]: 19.2%; viability, T/C (second compound 0.3 µM, first compound 0.00949 µM): 13.2%; viability, T/C (second compound 0.3 µM, first compound 0.03 µM): 13.1%; viability, T/C [17]: 12.7%; viability, T/C [18]: 11%; viability, T/C [19]: 9.44%; viability, T/C [20]: 6.18%
O=C(c1cc(Cc2n[nH]c(=O)c3ccccc23)ccc1F)N1CCN(C(=O)C2CC2)CC1 + CC[C@@]1(O)C(=O)OCc2c1cc1n(c2=O)Cc2cc3c(CN(C)C)c(O)ccc3nc2-1	< 4.52	< 4.52	< 4.52	5.19	> 7.02	103	104	103	95.4	93	95.8	92.7	86.9	74.8	77.9	75.7	72.9	57.2	58.2	58.3	viability, T/C (second compound 0.003 µM, first compound 9.49 µM): 83.3%; viability, T/C (second compound 0.003 µM, first compound 30 µM): 68.5%; viability, T/C (second compound 0.00949 µM, first compound 9.49 µM): 77.7%; viability, T/C (second compound 0.00949 µM, first compound 30 µM): 68%; viability, T/C (second compound 0.03 µM, first compound 9.49 µM): 63.7%; viability, T/C (second compound 0.03 µM, first compound 30 µM): 55.1%; viability, T/C [16]: 53.4%; viability, T/C (second compound 0.0949 µM, first compound 9.49 µM): 47.2%; viability, T/C (second compound 0.0949 µM, first compound 30 µM): 38.6%; viability, T/C [17]: 16.4%; viability, T/C [18]: 17.7%; viability, T/C [19]: 15%; viability, T/C [20]: 14.6%; viability, T/C (second compound 0.3 µM, first compound 9.49 µM): 12.4%; viability, T/C (second compound 0.3 µM, first compound 30 µM): 12.9%
